Measurements: patent US20240108738A1, “BICYCLIC PEPTIDE LIGANDS SPECIFIC FOR NK CELLS” (Bicycle Tx Limited, priority 2021, published 2024)
Numbered stars: 1 amine (or outer) side, 2 acyl side, 3 side chain; on linkers, the order of the positions; unused ones are H or OH. Bridge positions count the residues as written; N and C are the ends. Square brackets hold non-standard residues; d marks the D form. Peptide text beside a SMILES is read from it. TATA = O=C(CC[*:1])N1CN(C(=O)CC[*:2])CN(C(=O)CC[*:3])C1; Dopa = N[C@@H](Cc1ccc(O)c(O)c1)C(=O)O; dCha = N[C@H](CC1CCCCC1)C(=O)O; Cba = N[C@@H](CC1CCC1)C(=O)O; Pen = CC(C)(S)[C@H](N)C(=O)O; dNle = CCCC[C@@H](N)C(=O)O; Pip = O=C(O)[C@@H]1CCCCN1; dNva = CCC[C@@H](N)C(=O)O; Dap = NC[C@H](N)C(=O)O

target: T1, Fc-tagged human NKp46 (Homo sapiens, UniProt O76036); assay: NKp46 SPR assay (Method 1 and/or Method 2); assay type: binding; conditions: SPR Method 1 and/or Method 2, Table 3B
T1 construct: purchased ACROBiosystems NC1-H5257
T1 sequence (O76036 22-304): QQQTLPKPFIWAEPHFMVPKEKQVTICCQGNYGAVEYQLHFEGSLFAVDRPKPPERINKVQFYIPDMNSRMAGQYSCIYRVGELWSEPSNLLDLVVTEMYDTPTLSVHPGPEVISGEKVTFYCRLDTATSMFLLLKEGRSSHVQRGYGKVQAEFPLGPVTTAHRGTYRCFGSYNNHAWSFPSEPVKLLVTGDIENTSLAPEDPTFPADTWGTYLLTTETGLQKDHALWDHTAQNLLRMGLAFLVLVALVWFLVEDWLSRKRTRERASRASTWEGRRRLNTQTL
Protocol: SPR experiments were performed to determine ka (M^−1s^−1), kd (s^−1), KD (nM) values (where measurable) of various bicyclic peptides to immobilised NKp46.
For analysis of peptide binding to NKp46, a Biacore 3000 instrument was used with a Cytiva Streptavidin chip. Capture of the protein (recombinant human NKp46-Fc fusion biotinylated via Avi-tag) was carried out at 25° C. with HBS-N (10 mM HEPES, 0.15 M NaCl, pH 7.4) as the running buffer and biotinylated NKp46 was captured to a level of 400-800 RU using a dilution of protein to 0.2 μM in buffer. Buffer was then changed to PBS/0.05% Tween 20 and a dilution series of the peptides was prepared in this buffer with a final DMSO concentration of 0.5% with a top peptide concentration of 100 nM-5000 nM and 6 further 2 or 3-fold dilutions. The SPR analysis was run at 25° C. and a flow rate of 50 μl/min with 60 seconds association and 200-400 seconds dissociation time. Data were corrected for DMSO excluded volume effects. All data were double-referenced for blank injections and reference surface using standard processing procedures and data processing and kinetic fitting were performed using Scrubber software, version 2.0c (BioLogic Software). Data were fitted using simple 1:1 binding model allowing for mass transport effects where appropriate.
Peptides were tested against Fc-tagged human NKp46 (ACROBiosystems, cat no. NC1-H5257).
For analysis of peptide binding, a Biacore 8k+ instrument was used with a CM5 chip (Cytiva). All experiments were carried out at 25° C. Anti-human IgG (Fc) antibody (Cytiva) was immobilized on all flow cells by standard amine coupling chemistry. The running buffer was HBS-N(Cytiva, 10 mM HEPES, 0.15 M NaCl, pH 7.4) and the flow rate was 10 μL/min. The carboxymethyl dextran surface was activated with a 1:1 ratio of 0.4 M 1-ethyl-3-(3-dimethylaminopropyl) carbodiimide hydrochloride (EDC)/0.1 M N-hydroxy succinimide (NHS) (Cytiva) for 420s. […] Residual activated groups were blocked with a 420 s injection of 1 M ethanolamine (pH 8.5). The final surface density was 3000-5000 RU. Fc-tagged human NKp46 was diluted to 0.1 μM in HBS-N and was captured on flow cell 2 only of the sensor chip at a flow rate of 10 μL/min to 500-1000 RU. The buffer was then changed to PBS-P+(Cytiva) supplemented with 2% DMSO. […] The flow rate was 50 μL/min with 60 s association and 400 s dissociation. Data were corrected for DMSO volume exclusion effects. All data were double-referenced against blank injections and reference surface response using standard processing procedures. Data processing and kinetic fitting was performed using Biacore Insight Evaluation Software with Extended Screening and Characterization Extension (Cytiva). Data were fitted using steady state affinity 1:1 binding model to determine KD. Data were fitted using kinetic 1:1 binding model to determine kinetic constants where appropriate.

Structure (SMILES) | Kd [nM]
CC(=O)N[C@H]1CSCCC(=O)N2CN3CN(C2)C(=O)CCSC[C@H](NC(=O)[C@H](CC(C)C)NC(=O)[C@H](Cc2ccc(O)cc2)NC(=O)[C@H](CC(=O)O)NC(=O)[C@@H]2CCCN2C(=O)[C@H](CC2CCC2)NC(=O)[C@H](CCO)NC1=O)C(=O)N[C@H](C)C(=O)N[C@@H](CC(=O)O)C(=O)N[C@@H](CCC(=O)O)C(=O)N[C@@H](Cc1ccc(O)cc1)C(=O)N[C@H](C(N)=O)CSCCC3=O [BCY18434, Ac-(SEQ ID NO: 137)] | 44
CCC[C@H]1NC(=O)[C@@H]2CSCCC(=O)N3CN(CN(C3)C(=O)CCSC[C@H](NC(C)=O)C(=O)N[C@@H](Cc3ccc(O)cc3)C(=O)N[C@@H](CC3CCC3)C(=O)N3CCC[C@H]3C(=O)N[C@@H](CC(=O)O)C(=O)N[C@@H](Cc3ccc(O)cc3)C(=O)N[C@@H](CC(C)C)C(=O)N2)C(=O)CCSC[C@@H](C(N)=O)NC(=O)[C@H](Cc2ccc(O)cc2)NC(=O)[C@H](CCC(=O)O)NC(=O)[C@H](CC(=O)O)NC1=O [BCY18444, Ac-(SEQ ID NO: 145)] (Ac-CY[Cba]PDYLC[dNva]DEYC-NH2; linker 1-8-13 via TATA) | 3.9
CC(=O)N[C@H]1CSCCC(=O)N2CN3CN(C2)C(=O)CCSC[C@H](NC(=O)[C@H](CC(C)C)NC(=O)[C@H](Cc2ccc(O)cc2)NC(=O)[C@H](CC(=O)O)NC(=O)[C@@H]2CCCN2C(=O)[C@H](CC2CCC2)NC(=O)[C@H](Cc2ccc(O)cc2)NC1=O)C(=O)N[C@H](CC1CCCCC1)C(=O)N[C@@H](CC(=O)O)C(=O)N[C@@H](CCC(=O)O)C(=O)N[C@@H](Cc1ccc(O)cc1)C(=O)N[C@H](C(N)=O)CSCCC3=O [BCY19683, Ac-(SEQ ID NO: 147)] (Ac-CY[Cba]PDYLC[dCha]DEYC-NH2; linker 1-8-13 via TATA; C-terminus assumed) | 10
CCCC[C@H]1NC(=O)[C@@H]2CSCCC(=O)N3CN(CN(C3)C(=O)CCSC[C@H](NC(C)=O)C(=O)N[C@@H](Cc3ccc(O)cc3)C(=O)N[C@@H](CC3CCC3)C(=O)N3CCC[C@H]3C(=O)N[C@@H](CC(=O)O)C(=O)N[C@@H](Cc3ccc(O)cc3)C(=O)N[C@@H](CC(C)C)C(=O)N2)C(=O)CCSC[C@@H](C(N)=O)NC(=O)[C@H](Cc2ccc(O)cc2)NC(=O)[C@H](CCC(=O)O)NC(=O)[C@H](CC(=O)O)NC1=O [BCY19685, Ac-(SEQ ID NO: 149)] (Ac-CY[Cba]PDYLC[dNle]DEYC-NH2; linker 1-8-13 via TATA) | 10
CC(=O)N[C@H]1CSCCC(=O)N2CN3CN(C2)C(=O)CCSC[C@H](NC(=O)[C@H](CC(C)C)NC(=O)[C@H](Cc2ccc(O)c(O)c2)NC(=O)[C@H](CC(=O)O)NC(=O)[C@@H]2CCCN2C(=O)[C@H](CC2CCC2)NC(=O)[C@H](Cc2ccc(O)cc2)NC1=O)C(=O)N[C@H](C)C(=O)N[C@@H](CC(=O)O)C(=O)N[C@@H](CCC(=O)O)C(=O)N[C@@H](Cc1ccc(O)cc1)C(=O)N[C@H](C(N)=O)CSCCC3=O [BCY19686, Ac-(SEQ ID NO: 150)] (Ac-CY[Cba]PD[Dopa]LC[dA]DEYC-NH2; linker 1-8-13 via TATA; C-terminus assumed) | 44
CC(=O)N[C@@H]1C(=O)N[C@@H](Cc2ccc(O)cc2)C(=O)N[C@@H](CC2CCC2)C(=O)N2CCC[C@H]2C(=O)N[C@@H](CC(=O)O)C(=O)N[C@@H](Cc2ccc(O)cc2)C(=O)N[C@@H](CC(C)C)C(=O)N[C@H]2CSCCC(=O)N3CN(CN(C3)C(=O)CCSC1(C)C)C(=O)CCSC[C@@H](C(N)=O)NC(=O)[C@H](Cc1ccc(O)cc1)NC(=O)[C@H](CCC(=O)O)NC(=O)[C@H](CC(=O)O)NC(=O)[C@@H](C)NC2=O [BCY19689, Ac-(SEQ ID NO: 153)] (Ac-[Pen]Y[Cba]PDYLC[dA]DEYC-NH2; linker 1-8-13 via TATA; C-terminus assumed) | 16
CC(=O)N[C@H]1CSCCC(=O)N2CN3CN(C2)C(=O)CCSC(C)(C)[C@@H](C(N)=O)NC(=O)[C@H](Cc2ccc(O)cc2)NC(=O)[C@H](CCC(=O)O)NC(=O)[C@H](CC(=O)O)NC(=O)[C@@H](C)NC(=O)[C@H](CSCCC3=O)NC(=O)[C@H](CC(C)C)NC(=O)[C@H](Cc2ccc(O)cc2)NC(=O)[C@H](CC(=O)O)NC(=O)[C@@H]2CCCN2C(=O)[C@H](CC2CCC2)NC(=O)[C@H](Cc2ccc(O)cc2)NC1=O [BCY19691, Ac-(SEQ ID NO: 155)] (Ac-CY[Cba]PDYLC[dA]DEY[Pen]-NH2; linker 1-8-13 via TATA) | > 500
CC(=O)N[C@H]1CSCCC(=O)N2CN3CN(C2)C(=O)CCSC[C@H](C(N)=O)NC(=O)[C@H](Cc2ccc(O)cc2)NC(=O)[C@H](CCC(=O)O)NC(=O)[C@H](CC(=O)O)NC(=O)[C@@H](C)NC(=O)[C@H](CSCCC3=O)NC(=O)[C@H](CC(C)C)NC(=O)[C@H](Cc2ccc(O)cc2)NC(=O)[C@H](CC(=O)O)NC(=O)[C@@H]2CCCN2C(=O)[C@H](CC2CCC2)NC(=O)[C@H](Cc2ccc(O)cc2)NC1=O [BCY19692, Ac-(SEQ ID NO: 156)] (Ac-CY[Cba]PDYLC[dA]DEY[dC]-NH2; linker 1-8-13 via TATA) | > 500
CC(=O)N[C@@H]1CSCCC(=O)N2CN3CN(C2)C(=O)CCSC[C@H](NC(=O)[C@H](CC(C)C)NC(=O)[C@H](Cc2ccc(O)cc2)NC(=O)[C@H](CC(=O)O)NC(=O)[C@@H]2CCCN2C(=O)[C@H](CC2CCC2)NC(=O)[C@H](Cc2ccc(O)cc2)NC1=O)C(=O)N[C@H](C)C(=O)N[C@@H](CC(=O)O)C(=O)N[C@@H](CCC(=O)O)C(=O)N[C@@H](Cc1ccc(O)cc1)C(=O)N[C@H](C(N)=O)CSCCC3=O [BCY19693, Ac-(SEQ ID NO: 157)] (Ac-[dC]Y[Cba]PDYLC[dA]DEYC-NH2; linker 1-8-13 via TATA; C-terminus assumed) | 17
CSCC[C@@H]1NC(=O)[C@@H]2CSCCC(=O)N3CN(CN(C3)C(=O)CCSC[C@H](N)C(=O)N[C@@H](CC(N)=O)C(=O)N[C@@H](CC(C)C)C(=O)N[C@@H](CCC(N)=O)C(=O)N[C@@H](C)C(=O)N3CCC[C@H]3C(=O)N2)C(=O)CCSC[C@@H](C(=O)N[C@@H](C)C(N)=O)NC(=O)[C@H](C(C)C)NC(=O)[C@H](CCCCN)NC(=O)CNC(=O)[C@H]([C@@H](C)O)NC(=O)[C@H](CC(C)C)NC1=O [BCY19694, (SEQ ID NO: 4)-A] (H-CNLQAPCMLTGKVCA-NH2; linker 1-7-14 via TATA) | 2510
CSCC[C@@H]1NC(=O)[C@@H]2CSCCC(=O)N3CN(CN(C3)C(=O)CCSC[C@H](NC(=O)[C@@H](N)CCCCN)C(=O)N[C@@H](CC(N)=O)C(=O)N[C@@H](CC(C)C)C(=O)N[C@@H](CCC(N)=O)C(=O)N[C@@H](C)C(=O)N3CCC[C@H]3C(=O)N2)C(=O)CCSC[C@@H](C(=O)N[C@@H](C)C(N)=O)NC(=O)[C@H](C(C)C)NC(=O)[C@H](CCCCN)NC(=O)CNC(=O)[C@H]([C@@H](C)O)NC(=O)[C@H](CC(C)C)NC1=O [BCY19695, K-(SEQ ID NO: 4)-A] (H-KCNLQAPCMLTGKVCA-NH2; linker 2-8-15 via TATA; N-terminus assumed) | 2380
CSCC[C@@H]1NC(=O)[C@@H]2CSCCC(=O)N3CN(CN(C3)C(=O)CCSC[C@H](NC(=O)[C@@H](N)CN)C(=O)N[C@@H](CC(N)=O)C(=O)N[C@@H](CC(C)C)C(=O)N[C@@H](CCC(N)=O)C(=O)N[C@@H](C)C(=O)N3CCC[C@H]3C(=O)N2)C(=O)CCSC[C@@H](C(=O)N[C@@H](C)C(N)=O)NC(=O)[C@H](C(C)C)NC(=O)[C@H](CCCCN)NC(=O)CNC(=O)[C@H]([C@@H](C)O)NC(=O)[C@H](CC(C)C)NC1=O [BCY19697, Dap-(SEQ ID NO: 4)-A] (H-[Dap]CNLQAPCMLTGKVCA-NH2; linker 2-8-15 via TATA) | 3730
CSCC[C@@H]1NC(=O)[C@@H]2CSCCC(=O)N3CN(CN(C3)C(=O)CCSC[C@@H](C(=O)N[C@@H](C)C(N)=O)NC(=O)[C@H](C(C)C)NC(=O)[C@H](CCCCN)NC(=O)CNC(=O)[C@H]([C@@H](C)O)NC(=O)[C@H](CC(C)C)NC1=O)C(=O)CCSC[C@H](NC(=O)[C@H](C)N)C(=O)N[C@@H](CC(N)=O)C(=O)N[C@@H](CC(C)C)C(=O)N[C@@H](CCC(N)=O)C(=O)N[C@@H](C)C(=O)N1CCCC[C@H]1C(=O)N2 [BCY19701, A-(SEQ ID NO: 92)-A] (H-ACNLQA[Pip]CMLTGKVCA-NH2; linker 2-8-15 via TATA) | 4030
